From US20250361240A1, “PYRANOPYRIDINE COMPOUND, PROCESS FOR PREPARING THE SAME, PHARMACEUTICAL COMPOSITION AND USE THEREOF” (Zhejiang Yangli Pharmaceutical Technology Co., Ltd., priority 2024, published 2025)

Legend:
cortisol levels = assay: Pharmacodynamic test in cynomolgus monkeys with ACTH stimulation: cortisol in plasma; type: in vivo, cynomolgus monkeys (Macaca fascicularis); settings: 0.05 mg/kg oral
Description: (§1) Adult cynomolgus monkeys (Macaca fascicularis) with suitable body weight and age were selected. 1 male and 1 female cynomolgus monkeys were used for experiment. The adaptation period was 1 week. On the day of the experiment, monkeys were individually housed in stainless steel mesh cages for testing.
(§2) Oral treatment and ACTH working solution (working solution diluted to the desired concentration in PBS sterile solution by ultrapure water filtration through a 0.22 μm filter using Tetracosactrin (HY-P0060, MCE)) were administered as follows: • T=0, 2 monkeys in each group were orally administered 0.5 mg/kg (compound was suspended in 5% aqueous sodium hydroxymethylcellulose solution as vehicle) in a fixed volume of 2 mL/kg; • T=+1 hour (i.e., 1 hour after administration), 14.5 μg/kg of the aforementioned ACTH working solution was injected intramuscularly.
(§3) Sampling test: Blood samples (collected in EDTA anticoagulant tubes) were collected before oral administration (Pre-dose) and 0.5 h, 1 h, 2 h, 4 h, 6 h and 12 h after administration for cortisol concentration measurement in plasma. The blood was centrifuged at 10000 rpm for 15 minutes at 4° C., followed by separation of the plasma and uniform storage at −80° C. for further analysis using an Roche biochemical analyzer to detect aldosterone and cortisol in plasma, and a portion of the plasma (0.5 h, 1 h, 2 h, 4 h, 6 h, and 12 h after administration, and an additional blood collection after 24 h) was taken simultaneously to determine the pharmacokinetic parameters by LC/MS.
(§4) The above experiment was repeated except that: T=0, two monkeys in each group were orally administered at a dose of 0.05 mg/kg (compound was suspended in 5% aqueous sodium hydroxymethylcellulose as vehicle) in a fixed volume of 2 mL/kg.

human CYP11B1 = human CYP11B1 (Homo sapiens (Human), UniProt P15538); assay: Inhibitory activity against hCYP11B1 in G-402 CYP11B1 high expression stable transformants (cortisol HTRF); type: cell-based; settings: G-402 CYP11B1 cells, 0.2 μM 11-deoxycortisol, 16 hours; read-out: hCYP11B1 Abs IC50
human CYP11B1, sequence (P15538 25-503): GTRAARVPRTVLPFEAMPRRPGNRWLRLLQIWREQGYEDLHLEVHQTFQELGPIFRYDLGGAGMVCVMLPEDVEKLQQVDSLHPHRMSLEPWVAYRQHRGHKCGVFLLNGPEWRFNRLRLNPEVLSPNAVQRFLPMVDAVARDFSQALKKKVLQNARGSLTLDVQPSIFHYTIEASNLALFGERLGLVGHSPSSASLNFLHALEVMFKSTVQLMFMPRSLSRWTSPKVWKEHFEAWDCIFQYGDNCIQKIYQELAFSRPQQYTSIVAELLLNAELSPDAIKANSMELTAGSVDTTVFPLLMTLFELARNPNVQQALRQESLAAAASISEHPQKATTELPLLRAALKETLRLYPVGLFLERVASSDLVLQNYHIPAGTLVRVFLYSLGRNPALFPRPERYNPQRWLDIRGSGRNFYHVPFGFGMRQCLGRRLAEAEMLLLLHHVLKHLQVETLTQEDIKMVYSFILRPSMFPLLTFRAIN
Procedure: (§5) 1. Experimental System: G-402 CYP11B2 or CYP11B1 High Expression Stable Transformants
(§6) The above-mentioned high-expression stable transformants were constructed based on human […] cell line G-402. The artificial lentiviruses were introduced into human CYP11B2 (NM_000498.3) and CYP11B1 (NM_000497.4), respectively.
(§7) Maintenance medium: McCoy's 5A (modified, #16600082, GIBCO)+10% FBS (GIBCO)+1 μg/mL puromycin (A1113803, GIBCO).
(§8) Resuscitation and seeding medium: McCoy's 5A (modified, #16600082, GIBCO)+10% FBS (GIBCO).
(§9) Reaction medium: DMEM/F12 (#11320033, GIBCO)+2.5% activated charcoal filtered FBS (S11695, R & D).
(§10) Seeding: Cells were cultured to a suitable state after resuscitation with maintenance medium, and 96-well flat plates were seeded with seeding medium according to 1×10^4/100 μL/well (unified cell volume).
(§11) Changing solution: The supernatant was aspirated and discarded after seeding overnight (>12 hours) and adherence. 100-150 μL/well serum-free medium was added, and after being aspirated. After aspiration, 50 μL/well reaction medium was added for later use.
(§12) Formulation: Compound was diluted with reaction medium containing 0.4 μM substrate (final experimental concentration is 0.2 μM):
CYP11B1 substrate: 11-deoxycortisol (11-deoxycortisol, S4775, selleckchem). The final reaction concentration was 0.2 μM.
(§13) Loading: The above compound dilutions were added to the cell plates at 50 μL/well. The background and control wells were set.
(§14) Treating and sampling: The cell plates were incubated in a cell incubator for 16 hours after loading, and then each cell plate was centrifuged at 450 g for 2 min. 75 μL supernatant was transferred to a collection plate and frozen at −80° C. for future use (or direct detection).
(§15) Detection: Homogeneous time-resolved fluorescence kit (Cisbio HTRF kit, Cat.64ALDPEG, Cat.62CRTPEG) was used to determine the concentration of aldosterone or cortisol in the supernatant.
(§16) Analysis: The absolute IC50 (Abs IC50) for each compound was calculated using a four parameter fit.

aldosterone synthesis = assay: Pharmacodynamic test in cynomolgus monkeys with ACTH stimulation: aldosterone in plasma; type: in vivo, cynomolgus monkeys (Macaca fascicularis); settings: 0.05 mg/kg oral
Description: as §1, §2, §3, §4

[1] = Pharmacokinetic test in cynomolgus monkeys (LC/MS); type: in vivo, cynomolgus monkeys (Macaca fascicularis); settings: for Cmax / Tmax / half-life / AUC(0-t): both sexes, cynomolgus monkey, plasma, 0.05 mg/kg, 0.05mpk oral; for AUC(0-t): read-out: AUC0-24 h
Description: as §1, §2, §3, §4

human CYP11B2 = human CYP11B2 (Homo sapiens (Human), UniProt P19099); assay: Inhibitory activity against hCYP11B2 in G-402 CYP11B2 high expression stable transformants (aldosterone HTRF); type: cell-based; settings: for IC50: G-402 CYP11B2 cells, 0.2 μM 11-deoxycorticosterone, 16 hours, read-out: hCYP11B2 (AS) Abs IC50; for hCYP11B ½ Selectivity Fold: hCYP11B1 IC50 relative to hCYP11B2 IC50; for selectivity (in words): hCYP11B2 versus hCYP11B1, compared with reference Baxdrostat
human CYP11B2, sequence (P19099 25-503): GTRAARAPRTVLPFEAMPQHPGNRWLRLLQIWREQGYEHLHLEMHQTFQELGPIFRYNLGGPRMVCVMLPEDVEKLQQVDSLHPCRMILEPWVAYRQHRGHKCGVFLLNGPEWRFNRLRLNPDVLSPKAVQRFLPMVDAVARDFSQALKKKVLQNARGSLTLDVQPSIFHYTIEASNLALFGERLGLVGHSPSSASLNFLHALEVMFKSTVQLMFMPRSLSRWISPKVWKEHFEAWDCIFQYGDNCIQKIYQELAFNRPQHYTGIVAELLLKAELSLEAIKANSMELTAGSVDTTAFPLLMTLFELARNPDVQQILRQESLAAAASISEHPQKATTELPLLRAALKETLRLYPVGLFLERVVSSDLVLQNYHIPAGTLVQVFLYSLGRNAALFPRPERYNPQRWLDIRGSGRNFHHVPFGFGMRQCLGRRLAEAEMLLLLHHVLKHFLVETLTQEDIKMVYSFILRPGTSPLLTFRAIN
Procedure: as §5, §6, §7, §8, §9, §10, §11, §12
CYP11B2 substrate: 11-deoxycorticosterone (11-deoxycorticosterone, S4243, selleckchem). The final reaction concentration was 0.2 μM
as §13, §14, §15, §16

CYP1A2 = CYP1A2 (Homo sapiens (Human), UniProt P05177); assay: In vitro inhibitory activity against common CYP450 enzymes: CYP1A2; type: in vitro ADME; settings: human, microsomes, 10 min
CYP1A2, sequence (P05177 whole entry): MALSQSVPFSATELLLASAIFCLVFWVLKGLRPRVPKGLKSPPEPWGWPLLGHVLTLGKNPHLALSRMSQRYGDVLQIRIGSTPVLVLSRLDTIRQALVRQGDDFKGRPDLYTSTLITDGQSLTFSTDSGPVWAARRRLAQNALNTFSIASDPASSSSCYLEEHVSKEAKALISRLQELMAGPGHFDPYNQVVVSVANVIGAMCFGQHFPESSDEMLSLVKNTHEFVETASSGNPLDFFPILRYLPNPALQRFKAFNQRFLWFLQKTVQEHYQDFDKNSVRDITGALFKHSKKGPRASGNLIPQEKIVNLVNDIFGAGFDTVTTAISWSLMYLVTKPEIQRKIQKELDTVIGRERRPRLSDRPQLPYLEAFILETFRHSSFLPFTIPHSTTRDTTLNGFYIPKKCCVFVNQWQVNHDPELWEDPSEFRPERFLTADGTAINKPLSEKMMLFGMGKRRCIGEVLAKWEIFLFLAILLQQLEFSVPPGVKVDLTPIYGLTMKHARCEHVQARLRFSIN
Procedure: (§17) A working solution of the test compound was prepared in a solvent of dimethyl sulfoxide (DMSO) (starting at a final concentration of 50 μM, 3-fold dilution of 7 concentration points). The corresponding microsomes (CORNING, Cat No.452117) and the corresponding substrate solution were prepared (components were shown in Table 2). The working solution of the test compound and the corresponding microsomes were mixed with the corresponding substrate solution and the HLM working solution. The mixture was preheated in a 37.0° C. water bath for 10 min. NADPH cofactor (BONTAC, Cat No.BT04) was added. The resultant mixture was incubated for 10 min in a 37.0° C. water bath. The reaction was terminated by adding cold stop solution. [table] [table] The sample was centrifuged at 4000 rpm for 20 min to precipitate protein and the supernatant was transferred to HPLC water and shaken for 10 min.

CYP2D6 = CYP2D6 (Homo sapiens (Human), UniProt P10635); assay: In vitro inhibitory activity against common CYP450 enzymes: CYP2D6; type: in vitro ADME; settings: microsomes, substrate Dextromethorphan
CYP2D6, sequence (P10635 whole entry): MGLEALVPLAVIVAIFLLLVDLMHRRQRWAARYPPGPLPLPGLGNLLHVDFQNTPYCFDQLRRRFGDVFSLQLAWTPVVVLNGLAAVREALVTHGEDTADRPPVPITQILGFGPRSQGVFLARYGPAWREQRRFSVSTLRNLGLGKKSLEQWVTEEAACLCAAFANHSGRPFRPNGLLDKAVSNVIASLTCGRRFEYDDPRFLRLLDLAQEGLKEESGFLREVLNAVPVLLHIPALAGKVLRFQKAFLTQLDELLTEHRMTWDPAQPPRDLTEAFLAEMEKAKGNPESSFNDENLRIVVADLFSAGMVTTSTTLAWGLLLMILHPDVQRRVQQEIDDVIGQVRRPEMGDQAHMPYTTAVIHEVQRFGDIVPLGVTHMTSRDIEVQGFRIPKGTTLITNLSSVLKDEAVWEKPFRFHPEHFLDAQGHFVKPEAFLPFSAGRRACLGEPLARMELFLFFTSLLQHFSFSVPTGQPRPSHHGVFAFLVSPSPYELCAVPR
Procedure: as §17

CYP2C19 = CYP2C19 (Homo sapiens (Human), UniProt P33261); assay: In vitro inhibitory activity against common CYP450 enzymes: CYP2C19; type: in vitro ADME; settings: microsomes, substrate (S)-(+)-Mephenytoin
CYP2C19, sequence (P33261 whole entry): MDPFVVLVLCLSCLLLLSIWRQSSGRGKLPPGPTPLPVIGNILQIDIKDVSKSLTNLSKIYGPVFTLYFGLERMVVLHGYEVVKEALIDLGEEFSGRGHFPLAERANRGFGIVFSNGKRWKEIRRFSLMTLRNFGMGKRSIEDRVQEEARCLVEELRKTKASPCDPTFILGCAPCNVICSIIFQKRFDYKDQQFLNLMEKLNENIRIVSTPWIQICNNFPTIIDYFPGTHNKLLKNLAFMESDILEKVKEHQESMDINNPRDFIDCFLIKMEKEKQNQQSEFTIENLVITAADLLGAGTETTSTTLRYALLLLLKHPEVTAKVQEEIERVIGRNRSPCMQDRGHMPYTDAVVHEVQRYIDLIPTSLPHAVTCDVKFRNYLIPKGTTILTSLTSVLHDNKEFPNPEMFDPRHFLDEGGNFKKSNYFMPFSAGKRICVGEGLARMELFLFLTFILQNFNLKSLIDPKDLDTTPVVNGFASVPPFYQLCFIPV
Procedure: as §17

CYP2C9 = CYP2C9 (Homo sapiens (Human), UniProt P11712); assay: In vitro inhibitory activity against common CYP450 enzymes: CYP2C9; type: in vitro ADME; settings: microsomes, substrate Diclofenac
CYP2C9, sequence (P11712 whole entry): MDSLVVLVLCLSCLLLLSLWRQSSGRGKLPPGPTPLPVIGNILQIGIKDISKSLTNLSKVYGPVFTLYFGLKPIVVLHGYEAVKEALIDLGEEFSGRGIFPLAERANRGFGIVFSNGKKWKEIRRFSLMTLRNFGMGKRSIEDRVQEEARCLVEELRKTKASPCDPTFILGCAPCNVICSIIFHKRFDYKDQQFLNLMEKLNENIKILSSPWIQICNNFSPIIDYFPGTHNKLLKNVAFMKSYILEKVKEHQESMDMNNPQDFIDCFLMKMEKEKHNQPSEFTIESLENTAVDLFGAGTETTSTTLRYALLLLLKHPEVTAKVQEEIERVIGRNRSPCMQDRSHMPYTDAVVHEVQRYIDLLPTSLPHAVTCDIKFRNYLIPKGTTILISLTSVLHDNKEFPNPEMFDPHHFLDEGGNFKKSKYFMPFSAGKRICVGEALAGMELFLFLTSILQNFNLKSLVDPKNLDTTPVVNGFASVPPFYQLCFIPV
Procedure: as §17

CYP3A = CYP3A (Homo sapiens, UniProt P08684); assay: In vitro inhibitory activity against common CYP450 enzymes: CYP3A (midazolam); type: in vitro ADME; settings: human, human liver microsomes, probe Midazolam, substrate Midazolam
CYP3A, sequence (P08684 2-503 limits assumed): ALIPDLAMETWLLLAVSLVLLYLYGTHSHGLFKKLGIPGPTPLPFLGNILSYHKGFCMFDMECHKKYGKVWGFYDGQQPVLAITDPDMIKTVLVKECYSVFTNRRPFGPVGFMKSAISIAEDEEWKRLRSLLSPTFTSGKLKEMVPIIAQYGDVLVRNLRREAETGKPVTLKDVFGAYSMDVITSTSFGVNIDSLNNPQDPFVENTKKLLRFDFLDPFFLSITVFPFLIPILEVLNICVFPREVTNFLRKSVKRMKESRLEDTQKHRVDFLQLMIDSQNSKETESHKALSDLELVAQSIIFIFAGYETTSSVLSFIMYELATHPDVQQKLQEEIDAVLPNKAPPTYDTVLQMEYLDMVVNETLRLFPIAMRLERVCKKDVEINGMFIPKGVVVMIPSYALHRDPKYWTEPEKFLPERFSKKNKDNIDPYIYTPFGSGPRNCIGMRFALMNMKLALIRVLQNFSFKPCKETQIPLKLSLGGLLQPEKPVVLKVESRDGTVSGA
Procedure: as §17

[2H][C@@]1(NC(=O)CC)CCOc2c(-c3ccc4c(c3)CCC(=O)N4C)cncc21 [Example 2, (R)-N-(8-(1-methyl-2-oxo-1,2,3,4-tetrahydroquinolin-6-yl)-3,4-dihydro-2H-pyran[3,2-c]pyridin-4-yl-4-D)propanamide]
Cortisol Concentration in Plasma (cortisol levels; 0.5 h): 1299.9 pg/mL
Cortisol Concentration in Plasma (cortisol levels; 1 h (ACTH at +1 hour)): 1178.3 pg/mL
Cortisol Concentration in Plasma (cortisol levels; 2 h): 1809.0 pg/mL
Cortisol Concentration in Plasma (cortisol levels; 4 h): 872.2 pg/mL
Cortisol Concentration in Plasma (cortisol levels; 6 h): 451.8 pg/mL
Cortisol Concentration in Plasma (cortisol levels; 12 h): 710.2 pg/mL
Cortisol Concentration in Plasma (cortisol levels; Pre-dose): 838.9 pg/mL
IC50 (human CYP11B1): 5.36 µM
effect on aldosterone synthesis (in words) (aldosterone synthesis): no potent inhibition of aldosterone synthesis
Aldosterone Concentration in Plasma (aldosterone synthesis; 0.5 h): 1057.1 pg/mL
Aldosterone Concentration in Plasma (aldosterone synthesis; 1 h (ACTH at +1 hour)): 807.59 pg/mL
Aldosterone Concentration in Plasma (aldosterone synthesis; 2 h): 337.76 pg/mL
Aldosterone Concentration in Plasma (aldosterone synthesis; 4 h): 105.97 pg/mL
Aldosterone Concentration in Plasma (aldosterone synthesis; 6 h): 101.15 pg/mL
Aldosterone Concentration in Plasma (aldosterone synthesis; 12 h): 112.02 pg/mL
Aldosterone Concentration in Plasma (aldosterone synthesis; Pre-dose): 432.52 pg/mL
Cmax [1]: 0.0119 µg/mL
Tmax [1]: 2 h
half-life [1]: 9.7 h
AUC(0-t) [1]: 0.165 µg·h/mL
IC50 (human CYP11B2): 0.0371 µM
hCYP11B ½ Selectivity Fold (human CYP11B2): 144.47 Fold
selectivity (in words) (human CYP11B2): better selectivity

[2H][C@@]1(NC(=O)N(C)C)CCOc2c(-c3cc4c(cc3F)N(C)C(=O)CC4)cncc21 [Example 7, (R)-3-(8-(7-Fluoro-1-methyl-2-oxo-1,2,3,4-tetrahydroquinolin-6-yl)-3,4-dihydro-2H-pyran[3,2-c]pyridin-4-yl-4-d)-1,1-dimethylurea]
IC50 (human CYP11B1): > 10 µM
IC50 (human CYP11B2): 0.172 µM
hCYP11B ½ Selectivity Fold (human CYP11B2): >58 Fold

CCC(=O)N[C@@H]1CCOc2c(-c3cc4c(cc3F)N(C)C(=O)CC4)cncc21 [Example 8, (R)-N-(8-(7-Fluoro-1-methyl-2-oxo-1,2,3,4-tetrahydroquinolin-6-yl)-3,4-dihydro-2H-pyran[3,2-c]pyridin-4-yl)propanamide]
IC50 (CYP1A2): > 50 µM
Cortisol Concentration in Plasma (cortisol levels; 0.5 h): 1590.4 pg/mL
Cortisol Concentration in Plasma (cortisol levels; 1 h (ACTH at +1 hour)): 1335.6 pg/mL
Cortisol Concentration in Plasma (cortisol levels; 2 h): 1990.5 pg/mL
Cortisol Concentration in Plasma (cortisol levels; 4 h): 818.4 pg/mL
Cortisol Concentration in Plasma (cortisol levels; 6 h): 410.8 pg/mL
Cortisol Concentration in Plasma (cortisol levels; 12 h): 487.5 pg/mL
Cortisol Concentration in Plasma (cortisol levels; Pre-dose): 831.6 pg/mL
IC50 (CYP2D6): > 50 µM
IC50 (CYP2C19): > 50 µM
IC50 (human CYP11B1): 4.6 µM
effect on aldosterone synthesis (in words) (aldosterone synthesis): significantly inhibited aldosterone synthesis
Aldosterone Concentration in Plasma (aldosterone synthesis; 0.5 h): 557.64 pg/mL
Aldosterone Concentration in Plasma (aldosterone synthesis; 1 h (ACTH at +1 hour)): 350.13 pg/mL
Aldosterone Concentration in Plasma (aldosterone synthesis; 2 h): 139.86 pg/mL
Aldosterone Concentration in Plasma (aldosterone synthesis; 4 h): 81.71 pg/mL
Aldosterone Concentration in Plasma (aldosterone synthesis; 6 h): 84.08 pg/mL
Aldosterone Concentration in Plasma (aldosterone synthesis; 12 h): 91.38 pg/mL
Aldosterone Concentration in Plasma (aldosterone synthesis; Pre-dose): 421.96 pg/mL
IC50 (CYP2C9): > 50 µM
Cmax [1]: 0.0227 µg/mL
Tmax [1]: 2 h
half-life [1]: 12.7 h
AUC(0-t) [1]: 0.332 µg·h/mL
Cmax and AUC relative to the reference Baxdrostat ([1]; same dose): three times as high
Cmax and AUC values relative to the compound of Example 2 ([1]; same dose (0.05mpk)): twice as high
IC50 (human CYP11B2): 0.0231 µM
hCYP11B ½ Selectivity Fold (human CYP11B2): 199 Fold
selectivity (in words) (human CYP11B2): better selectivity
IC50 at 10 min (CYP3A): > 50 µM

[2H][C@@]1(NC(=O)N(C)C)CCOc2c(-c3ccc4c(c3)CCC(=O)N4C)cncc21 [Example 5, (R)-1,1-dimethyl-3-(8-(1-methyl-2-oxo-1,2,3,4-tetrahydroquinolin-6-yl)-3,4-dihydro-2H-pyran[3,2-c]pyridin-4-yl-4-d)urea]
IC50 (human CYP11B1): 3.38 µM
IC50 (human CYP11B2): 0.0496 µM
hCYP11B ½ Selectivity Fold (human CYP11B2): 68.19 Fold

CN(C)C(=O)N[C@@H]1CCOc2c(-c3ccc4c(c3)CCC(=O)N4C)cncc21 [Example 3, (R)-1,1-dimethyl-3-(8-(1-methyl-2-oxo-1,2,3,4-tetrahydroquinolin-6-yl)-3,4-dihydro-2H-pyran[3,2-c]pyridin-4-yl)urea]
IC50 (human CYP11B1): 5.25 µM
IC50 (human CYP11B2): 0.0611 µM
hCYP11B ½ Selectivity Fold (human CYP11B2): 85.95 Fold

CN(C)C(=O)N[C@@H]1CCOc2c(-c3cc4c(cc3F)N(C)C(=O)CC4)cncc21 [Example 6, (R)-3-(8-(7-fluoro-1-methyl-2-oxo-1,2,3,4-tetrahydroquinolin-6-yl)-3,4-dihydro-2H-pyran[3,2-c]pyridin-4-yl)-1,1-dimethylurea]
IC50 (human CYP11B1): > 10 µM
IC50 (human CYP11B2): 0.0773 µM
hCYP11B ½ Selectivity Fold (human CYP11B2): >129.37 Fold
selectivity (in words) (human CYP11B2): better selectivity

[2H][C@@]1(NC(=O)CC)CCOc2c(-c3cc4c(cc3F)N(C)C(=O)CC4)cncc21 [Example 4, (R)-N-(8-(7-fluoro-1-methyl-2-oxo-1,2,3,4-tetrahydroquinolin-6-yl)-3,4-dihydro-2H-pyran[3,2-c]pyridin-4-yl-4-d)propanamide]
IC50 (human CYP11B1): 4.8 µM
IC50 (human CYP11B2): 0.0427 µM
hCYP11B ½ Selectivity Fold (human CYP11B2): 112.51 Fold
